Measurements reported in the CheMixHub viscosity set.

Assay: xn = mol fraction of the nth substance listed

CC(C)CC(C)(C)C + C1CCCCC1
viscosity [mPa·s]
Conditions | 298.15 K | 303.15 K | 308.15 K | 313.15 K | 318.15 K | 323.15 K
101 kPa, x2 = 0.1052 | – | 0.4666 | – | – | – | –
101 kPa, x2 = 0.1988 | – | 0.4842 | – | – | – | –
101 kPa, x2 = 0.3026 | – | 0.505 | – | – | – | –
101 kPa, x2 = 0.4095 | – | 0.5328 | – | – | – | –
101 kPa, x2 = 0.5008 | – | 0.5579 | – | – | – | –
101 kPa, x2 = 0.6005 | – | 0.5947 | – | – | – | –
101 kPa, x2 = 0.7002 | – | 0.6379 | – | – | – | –
101 kPa, x2 = 0.8014 | – | 0.6902 | – | – | – | –
101.33 kPa, x1 = 0.035 | 0.8617 | 0.7932 | 0.7312 | 0.6779 | 0.6323 | 0.5887
101.33 kPa, x1 = 0.0662 | 0.8283 | 0.7645 | 0.7054 | 0.6567 | 0.6115 | 0.5733
101.33 kPa, x1 = 0.1012 | 0.8041 | 0.741 | 0.6844 | 0.6377 | 0.5952 | 0.5565
101.33 kPa, x1 = 0.1376 | 0.7806 | 0.718 | 0.6639 | 0.6192 | 0.5793 | 0.5402
101.33 kPa, x1 = 0.1754 | 0.7572 | 0.6953 | 0.6438 | 0.6 | 0.5628 | 0.5235
101.33 kPa, x1 = 0.2147 | 0.7344 | 0.6732 | 0.6242 | 0.5813 | 0.5467 | –
101.33 kPa, x1 = 0.2557 | 0.7147 | 0.6528 | 0.6066 | 0.5646 | 0.5318 | –
101.33 kPa, x1 = 0.2984 | 0.6954 | 0.633 | 0.5895 | 0.5483 | 0.5172 | –
101.33 kPa, x1 = 0.343 | 0.6717 | 0.6129 | 0.5717 | 0.5322 | 0.5024 | –
101.33 kPa, x1 = 0.3895 | 0.6484 | 0.5933 | 0.5545 | 0.5166 | 0.488 | –
101.33 kPa, x1 = 0.4382 | 0.6219 | 0.5768 | 0.539 | 0.5029 | 0.4762 | –
101.33 kPa, x1 = 0.4891 | 0.5959 | 0.5607 | 0.524 | 0.4895 | 0.4647 | –
101.33 kPa, x1 = 0.5423 | 0.5752 | 0.5454 | 0.5098 | 0.4781 | 0.4527 | –
101.33 kPa, x1 = 0.5982 | 0.5549 | 0.5306 | 0.496 | 0.4671 | 0.4411 | –
101.33 kPa, x1 = 0.6569 | 0.5406 | 0.5132 | 0.4812 | 0.4546 | 0.4305 | –
101.33 kPa, x1 = 0.7185 | 0.5267 | 0.4963 | 0.4668 | 0.4424 | 0.4203 | –
101.33 kPa, x1 = 0.7834 | 0.5135 | 0.4848 | 0.457 | 0.4315 | 0.4106 | –
101.33 kPa, x1 = 0.8517 | 0.5006 | 0.4737 | 0.4475 | 0.421 | 0.4013 | –
101.33 kPa, x1 = 0.9238 | 0.4888 | 0.4625 | 0.4368 | 0.4131 | 0.3929 | –

CCCCCCO + COC(=O)OC
Conditions | viscosity [mPa·s]
293.15 K, 100 kPa, x2 = 0.1003 | 3.53
293.15 K, 100 kPa, x2 = 0.1998 | 2.47
293.15 K, 100 kPa, x2 = 0.3011 | 1.87
293.15 K, 100 kPa, x2 = 0.4001 | 1.51
293.15 K, 100 kPa, x2 = 0.5007 | 1.24
293.15 K, 100 kPa, x2 = 0.5987 | 0.95
293.15 K, 100 kPa, x2 = 0.7003 | 0.77
293.15 K, 100 kPa, x2 = 0.8013 | 0.71
293.15 K, 100 kPa, x2 = 0.9002 | 0.61
293.15 K, 101 kPa, x2 = 0.04349 | 4.578
293.15 K, 101 kPa, x2 = 0.1014 | 3.717
293.15 K, 101 kPa, x2 = 0.1936 | 2.761
293.15 K, 101 kPa, x2 = 0.3033 | 2.046
293.15 K, 101 kPa, x2 = 0.4078 | 1.6
293.15 K, 101 kPa, x2 = 0.5026 | 1.302
293.15 K, 101 kPa, x2 = 0.602 | 1.06
293.15 K, 101 kPa, x2 = 0.699 | 0.883
293.15 K, 101 kPa, x2 = 0.8055 | 0.756
293.15 K, 101 kPa, x2 = 0.9079 | 0.685
293.15 K, 101 kPa, x2 = 0.9562 | 0.648
298.15 K, 100 kPa, x2 = 0.1003 | 3.06
298.15 K, 100 kPa, x2 = 0.1998 | 2.17
298.15 K, 100 kPa, x2 = 0.3011 | 1.66
298.15 K, 100 kPa, x2 = 0.4001 | 1.34
298.15 K, 100 kPa, x2 = 0.5007 | 1.12
298.15 K, 100 kPa, x2 = 0.5987 | 0.92
298.15 K, 100 kPa, x2 = 0.7003 | 0.77
298.15 K, 100 kPa, x2 = 0.8013 | 0.66
298.15 K, 100 kPa, x2 = 0.9002 | 0.57
303.15 K, 100 kPa, x2 = 0.1003 | 2.67
303.15 K, 100 kPa, x2 = 0.1998 | 1.93
303.15 K, 100 kPa, x2 = 0.3011 | 1.48
303.15 K, 100 kPa, x2 = 0.4001 | 1.23
303.15 K, 100 kPa, x2 = 0.5007 | 1.02
303.15 K, 100 kPa, x2 = 0.5987 | 0.84
303.15 K, 100 kPa, x2 = 0.7003 | 0.72
303.15 K, 100 kPa, x2 = 0.8013 | 0.61
303.15 K, 100 kPa, x2 = 0.9002 | 0.54
303.15 K, 101 kPa, x2 = 0.04993 | 3.355
303.15 K, 101 kPa, x2 = 0.1121 | 2.759
303.15 K, 101 kPa, x2 = 0.1985 | 2.135
303.15 K, 101 kPa, x2 = 0.3013 | 1.623
303.15 K, 101 kPa, x2 = 0.4548 | 1.153
303.15 K, 101 kPa, x2 = 0.4939 | 1.069
303.15 K, 101 kPa, x2 = 0.5585 | 0.951
303.15 K, 101 kPa, x2 = 0.7038 | 0.747
303.15 K, 101 kPa, x2 = 0.7977 | 0.649
303.15 K, 101 kPa, x2 = 0.9079 | 0.571
303.15 K, 101 kPa, x2 = 0.9534 | 0.548
308.15 K, 100 kPa, x2 = 0.1003 | 2.35
308.15 K, 100 kPa, x2 = 0.1998 | 1.71
308.15 K, 100 kPa, x2 = 0.3011 | 1.33
308.15 K, 100 kPa, x2 = 0.4001 | 1.07
308.15 K, 100 kPa, x2 = 0.5007 | 0.93
308.15 K, 100 kPa, x2 = 0.5987 | 0.78
308.15 K, 100 kPa, x2 = 0.7003 | 0.67
308.15 K, 100 kPa, x2 = 0.8013 | 0.57
308.15 K, 100 kPa, x2 = 0.9002 | 0.53
313.15 K, 100 kPa, x2 = 0.1003 | 2.07
313.15 K, 100 kPa, x2 = 0.1998 | 1.53
313.15 K, 100 kPa, x2 = 0.3011 | 1.21
313.15 K, 100 kPa, x2 = 0.4001 | 0.99
313.15 K, 100 kPa, x2 = 0.5007 | 0.86
313.15 K, 100 kPa, x2 = 0.5987 | 0.72
313.15 K, 100 kPa, x2 = 0.7003 | 0.62
313.15 K, 100 kPa, x2 = 0.8013 | 0.53
313.15 K, 100 kPa, x2 = 0.9002 | 0.48
313.15 K, 101 kPa, x2 = 0.05023 | 2.521
313.15 K, 101 kPa, x2 = 0.1223 | 2.039
313.15 K, 101 kPa, x2 = 0.2131 | 1.599
313.15 K, 101 kPa, x2 = 0.3291 | 1.223
313.15 K, 101 kPa, x2 = 0.4005 | 1.061
313.15 K, 101 kPa, x2 = 0.4874 | 0.911
313.15 K, 101 kPa, x2 = 0.5997 | 0.76
313.15 K, 101 kPa, x2 = 0.6524 | 0.713
313.15 K, 101 kPa, x2 = 0.7994 | 0.572
313.15 K, 101 kPa, x2 = 0.9089 | 0.514
313.15 K, 101 kPa, x2 = 0.9495 | 0.501
318.15 K, 100 kPa, x2 = 0.1003 | 1.83
318.15 K, 100 kPa, x2 = 0.1998 | 1.37
318.15 K, 100 kPa, x2 = 0.3011 | 1.09
318.15 K, 100 kPa, x2 = 0.4001 | 0.91
318.15 K, 100 kPa, x2 = 0.5007 | 0.79
318.15 K, 100 kPa, x2 = 0.5987 | 0.67
318.15 K, 100 kPa, x2 = 0.7003 | 0.58
318.15 K, 100 kPa, x2 = 0.8013 | 0.51
318.15 K, 100 kPa, x2 = 0.9002 | 0.46
323.15 K, 100 kPa, x2 = 0.1003 | 1.63
323.15 K, 100 kPa, x2 = 0.1998 | 1.24
323.15 K, 100 kPa, x2 = 0.3011 | 0.99
323.15 K, 100 kPa, x2 = 0.4001 | 0.84
323.15 K, 100 kPa, x2 = 0.5007 | 0.73
323.15 K, 100 kPa, x2 = 0.5987 | 0.63
323.15 K, 100 kPa, x2 = 0.7003 | 0.55
323.15 K, 100 kPa, x2 = 0.8013 | 0.48
323.15 K, 100 kPa, x2 = 0.9002 | 0.43
